Publication PMC7569734 (Bioorganic & medicinal chemistry letters, 2019)
“Also recorded” adds a separate entry of the source. Where two headings read alike, the source gives them in different places. Marks after values point to notes of the source that are not given here.

Columns and labels:
[1] = test system: Type 2 GD patient-derived cells (L444P/L444P genotype); assay: GPN-induced lysosomal calcium release assay in Type 2 GD patient-derived cells; assay type: cell-based, human; conditions: for Emax: Homo sapiens, read-out: Lysosomal Ca+2 Assay Emax, GD patient-derived cells, percent activation of basal GPN-induced calcium response measured in the absence of compound
[2] = test system: Estrogen Receptor; assay: Estrogen receptor assay; assay type: cell-based

Structure (SMILES)	activity in lysosomal calcium release assay (in words) ([1]; GD patient-derived cells)	estrogen receptor functional activity (in words) ([2]; 10 μM)	other results
CCCCC(C(=O)c1ccc(OCCN(C)C)cc1)c1ccccc1 (centres unmarked) [Compound 21]	little effect on lysosomal calcium release; also recorded: no activity	–	–
CCC(C(=O)c1ccc(OCCN(C)C)cc1)c1ccccc1 (centres unmarked) [Compound 17]	little effect on lysosomal calcium release	–	–
CCC(Cc1ccc(OCCN(C)C)cc1)c1ccccc1 (centres unmarked) [Compound 5]	somewhat more potent than and equally efficacious as tamoxifen	–	–
CC(C)CC(C(=O)c1ccc(OCCN(C)C)cc1)c1ccccc1C1CC1 (centres unmarked) [Compound 31]	–	devoid of estrogenic activity; also recorded: lack of any estrogenic activity	–
CC(C)CCC(C(=O)c1ccc(OCCN(C)C)cc1)c1ccccc1 (centres unmarked) [Compound 23]	–	partial agonist activity	efficacy relative to tamoxifen in calcium release assay ([1]; GD patient-derived cells, percent more efficacious than tamoxifen): roughly 30%
CCCCC(C(=O)c1ccc(OCCN(C)C)cc1)c1ccccc1CC (centres unmarked) [Compound 26]	–	antagonist rather than an agonist	–
CC(C)C(C(=O)c1ccc(OCCN(C)C)cc1)c1ccccc1 (centres unmarked) [Compound 19]	–	–	Emax [1]: 54 to 60%
CCCC(C(=O)c1ccc(OCCN(C)C)cc1)c1ccccc1 (centres unmarked) [Compound 18]	little effect on lysosomal calcium release	–	–
CCCCC(C(=O)c1ccc(OCCN(C)C)cc1)c1ccccc1C(C)C (centres unmarked) [Compound 28]	–	–	EC50 ([1]; read-out: Lysosomal Ca+2 Assay EC50, GD patient-derived cells, GPN-induced calcium release): 1480 nM
CCCC(CCC)(C(=O)c1ccc(OCCN(C)C)cc1)c1ccccc1 [Compound 20]	–	–	Emax [1]: 54 to 60%
CCCCCCC(C(=O)c1ccc(OCCN(C)C)cc1)c1ccccc1 (centres unmarked) [Compound 24]	little effect on lysosomal calcium release	partial agonist activity	–
CC/C(=C(\c1ccccc1)c1ccc(OCCN(C)C)cc1)c1ccccc1 [Compound 1, tamoxifen, reference compound]	partially restores lysosomal calcium in GD patient-derived cells	–	Estrogen Receptor % Activity @ 10 μM (inhibition) [2]: 100%^††; estrogen receptor functional activity (in words) [2]: antagonist activity
CC(C)CC(C(=O)c1ccc(OCCN(C)C)cc1)c1ccccc1 (centres unmarked) [Compound 22]	–	–	potency relative to tamoxifen in calcium release assay ([1]; GD patient-derived cells, fold more potent than tamoxifen): 10 fold
